PubChem BioAssay AID330 (DTP/NCI, 2004)
Where “and” joins values, the source holds several entries; their conditions need not be identical. Equal values may be shown once. Toxic doses and inconclusive results are not listed. The calls were made as follows: active = survival T/C of 150% or more; inactive = T/C below 125% in these data.

Test system: P388 leukemia ip, CD2F1 mice, survival T/C
Assay: NCI In Vivo Anticancer Drug Screen. Data for tumor model P388 Leukemia (intraperitoneal) in CD2F1 (CDF1) mice
Settings: endpoint: median survival time, higher = longer survival
Procedure, shortened: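 Mice carrying the transplanted tumor received test compound or vehicle. Survival was recorded in each group, and the value is the treated-group measurement divided by that of the vehicle-treated control group.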

[1] = dose: 25.0 mg/kg/injection, schedule: Q01DX009 (ip), vehicle: saline with Tween-80
[2] = dose: 50.0 mg/kg/injection, schedule: Q01DX009 (ip), vehicle: saline with Tween-80
[3] = dose: 100.0 mg/kg/injection, schedule: Q01DX009 (ip), vehicle: saline with Tween-80
[4] = dose: 200.0 mg/kg/injection, schedule: Q01DX009 (ip), vehicle: saline with Tween-80
[5] = dose: 12.5 mg/kg/injection, schedule: Q01DX005 (ip), vehicle: saline with Tween-80
[6] = dose: 25.0 mg/kg/injection, schedule: Q01DX005 (ip), vehicle: saline with Tween-80
[7] = dose: 50.0 mg/kg/injection, schedule: Q01DX005 (ip), vehicle: saline with Tween-80
[8] = dose: 100.0 mg/kg/injection, schedule: Q04DX003 (ip), vehicle: saline
[9] = dose: 25.0 mg/kg/injection, schedule: Q01DX009 (ip), vehicle: water
[10] = dose: 50.0 mg/kg/injection, schedule: Q01DX009 (ip), vehicle: water
[11] = dose: 60.0 mg/kg/injection, schedule: Q01DX005 (ip), vehicle: saline with Tween-80
[12] = dose: 120.0 mg/kg/injection, schedule: Q01DX005 (ip), vehicle: saline with Tween-80
[13] = dose: 240.0 mg/kg/injection, schedule: Q01DX005 (ip), vehicle: saline with Tween-80

Measured: T/C

OCCN(CCO)c1ccc2ccc(N(CCO)CCO)nc2n1
inactive: dose: 50.0 mg/kg/injection, schedule: Q04DX003 (ip), vehicle: Klucel (hydroxypropylcellulose) (HPC) 103 % of control | dose: 100.0 mg/kg/injection, schedule: Q04DX003 (ip), vehicle: Klucel (hydroxypropylcellulose) (HPC) 103 % of control | dose: 200.0 mg/kg/injection, schedule: Q04DX003 (ip), vehicle: Klucel (hydroxypropylcellulose) (HPC) 100 % of control

c1ccc2c3c([nH]c2c1)CCCCC3
inactive: [1] 96 % of control | [2] 109 % of control | [3] 106 % of control | [4] 118 % of control

CCCCCCOC(=O)C(O)c1ccccc1 (stereo unspecified)
inactive: [3] 100 % of control | [4] 109 % of control

CSC(=S)N/N=C(/C)CC(C)C
inactive: dose: 12.5 mg/kg/injection, schedule: Q01DX009 (ip), vehicle: saline with Tween-80 105 % of control | [1] 120 % of control | [2] 100 % of control

CCC[CH2][Sn]([CH2]CCC)([O]C(=O)/C=C/c1ccccc1)[O]C(=O)/C=C/c1ccccc1
inactive: dose: 1.56 mg/kg/injection, schedule: Q04DX003 (ip), vehicle: DMSO 87 % of control | dose: 3.12 mg/kg/injection, schedule: Q04DX003 (ip), vehicle: DMSO 89 % of control | dose: 6.25 mg/kg/injection, schedule: Q04DX003 (ip), vehicle: DMSO 89 % of control | dose: 12.5 mg/kg/injection, schedule: Q04DX003 (ip), vehicle: saline with Tween-80 117 % of control

C/C(=N\NC(=S)Nc1ccc(C(=O)O)cc1)c1ccccn1
inactive: [5] 110 % of control | [6] 112 % of control | [7] 109 % of control and 114 % of control

OC(c1ccccc1)C1CC=CCC1 (stereo unspecified)
inactive: dose: 12.5 mg/kg/injection, schedule: Q04DX003 (ip), vehicle: saline 97 % of control | dose: 25.0 mg/kg/injection, schedule: Q04DX003 (ip), vehicle: saline with Tween-80 101 % of control and 98 % of control | dose: 25.0 mg/kg/injection, schedule: Q04DX003 (ip), vehicle: saline 105 % of control | dose: 50.0 mg/kg/injection, schedule: Q04DX003 (ip), vehicle: saline with Tween-80 111 % of control and 96 % of control | dose: 50.0 mg/kg/injection, schedule: Q04DX003 (ip), vehicle: saline 109 % of control | dose: 100.0 mg/kg/injection, schedule: Q04DX003 (ip), vehicle: saline with Tween-80 99 % of control | [8] 103 % of control | dose: 200.0 mg/kg/injection, schedule: Q04DX003 (ip), vehicle: saline with Tween-80 99 % of control

CC(=O)OCC12C3CC(=O)OC1C(OC(=O)C=C(C)C)C1C(C)=CC(=O)C(OC(C)=O)C1(C)C2C(=O)C(OC(C)=O)C3C (stereo unspecified)
inactive: dose: 0.5 mg/kg/injection, schedule: Q01DX009 (ip), vehicle: distilled water + Tween-80 100 % of control | dose: 1.0 mg/kg/injection, schedule: Q01DX009 (ip), vehicle: distilled water + Tween-80 97 % of control | dose: 2.0 mg/kg/injection, schedule: Q01DX009 (ip), vehicle: distilled water + Tween-80 102 % of control | dose: 4.0 mg/kg/injection, schedule: Q01DX009 (ip), vehicle: distilled water + Tween-80 101 % of control | dose: 8.0 mg/kg/injection, schedule: Q01DX009 (ip), vehicle: distilled water + Tween-80 102 % of control

CC1=C(CCC(C)NCc2ccc(OCCCN3CCCCC3)cc2)C(C)(C)CCC1 (stereo unspecified)
inactive: dose: 6.25 mg/kg/injection, schedule: Q01DX005 (ip), vehicle: Klucel (hydroxypropylcellulose) (HPC) 104 % of control | dose: 12.5 mg/kg/injection, schedule: Q01DX005 (ip), vehicle: Klucel (hydroxypropylcellulose) (HPC) 98 % of control | dose: 25.0 mg/kg/injection, schedule: Q01DX005 (ip), vehicle: Klucel (hydroxypropylcellulose) (HPC) 104 % of control

O=C(O)CSc1nc(-c2ccccc2)c(-c2ccccc2)n1-c1ccccn1
inactive: [9] 103 % of control and 124 % of control | [10] 108 % of control and 97 % of control | dose: 100.0 mg/kg/injection, schedule: Q01DX009 (ip), vehicle: water 118 % of control and 122 % of control and 86 % of control | dose: 200.0 mg/kg/injection, schedule: Q01DX009 (ip), vehicle: water 115 % of control and 86 % of control

COCC#CCN(C)C
inactive: dose: 60.0 mg/kg/injection, schedule: Q01DX005 (ip), vehicle: saline 95 % of control | dose: 120.0 mg/kg/injection, schedule: Q01DX005 (ip), vehicle: saline 99 % of control | dose: 240.0 mg/kg/injection, schedule: Q01DX005 (ip), vehicle: saline 95 % of control

CC1=CC(O/C=C2\C(=O)OC3c4ccccc4CC23)OC1=O (stereo unspecified)
inactive: dose: 50.0 mg/kg/injection, schedule: Q01DX009 (ip), vehicle: suspension in saline 101 % of control | dose: 100.0 mg/kg/injection, schedule: Q01DX009 (ip), vehicle: suspension in saline 108 % of control | dose: 200.0 mg/kg/injection, schedule: Q01DX009 (ip), vehicle: suspension in saline 92 % of control

COC(=O)c1nn(Cc2ccccc2)cc1C=O
inactive: [11] 99 % of control | [12] 92 % of control | [13] 92 % of control

Cc1cc[n+]([O-])cc1
inactive: dose: 50.0 mg/kg/injection, schedule: Q01DX009 (ip), vehicle: saline 105 % of control | dose: 100.0 mg/kg/injection, schedule: Q01DX009 (ip), vehicle: saline 106 % of control | dose: 200.0 mg/kg/injection, schedule: Q01DX009 (ip), vehicle: saline 97 % of control

CNc1ncnc2c1ccn2C1OC(CO)C(O)C1O (stereo unspecified)
inactive: dose: 6.25 mg/kg/injection, schedule: Q01DX005 (ip), vehicle: saline with Tween-80 100 % of control | [5] 108 % of control | [6] 100 % of control

CC1C(C(=O)NCC(c2ccccc2)c2ccccc2)CC2CCCCN21 (stereo unspecified)
inactive: dose: 15.0 mg/kg/injection, schedule: Q01DX005 (ip), vehicle: saline with Tween-80 96 % of control | dose: 30.0 mg/kg/injection, schedule: Q01DX005 (ip), vehicle: saline with Tween-80 92 % of control | [11] 91 % of control and 92 % of control

C=Cc1nc(=O)[nH]c(=O)[nH]1
inactive: dose: 100.0 mg/kg/injection, schedule: Q04DX002 (ip), vehicle: Klucel (hydroxypropylcellulose) (HPC) 97 % of control | dose: 100.0 mg/kg/injection, schedule: Q04DX002 (ip), vehicle: saline 101 % of control | dose: 200.0 mg/kg/injection, schedule: Q04DX002 (ip), vehicle: Klucel (hydroxypropylcellulose) (HPC) 91 % of control | dose: 200.0 mg/kg/injection, schedule: Q04DX002 (ip), vehicle: saline 108 % of control | dose: 400.0 mg/kg/injection, schedule: Q04DX002 (ip), vehicle: Klucel (hydroxypropylcellulose) (HPC) 97 % of control | dose: 400.0 mg/kg/injection, schedule: Q04DX002 (ip), vehicle: saline 98 % of control

NC(N)=NS(=O)(=O)c1ccc(N=Cc2c3ccccc3nc3cc(Cl)ccc23)cc1
inactive: [11] 91 % of control | [12] 91 % of control | [13] 91 % of control

c1ccc(C2=NNC(c3ccccn3)=C3CCCCCCC3=N2)nc1
inactive: dose: 5.3 mg/kg/injection, schedule: Q01DX009 (ip), vehicle: water 110 % of control | dose: 8.0 mg/kg/injection, schedule: Q01DX009 (ip), vehicle: water 112 % of control | dose: 12.0 mg/kg/injection, schedule: Q01DX009 (ip), vehicle: water 112 % of control | dose: 18.0 mg/kg/injection, schedule: Q01DX009 (ip), vehicle: water 110 % of control | [9] 111 % of control | [10] 117 % of control

CCCCCCC(/C=C/c1c(Cl)cccc1Cl)=N\O
inactive: [1] 98 % of control | [2] 100 % of control | [3] 99 % of control and 109 % of control | [4] 101 % of control | dose: 400.0 mg/kg/injection, schedule: Q01DX009 (ip), vehicle: saline with Tween-80 118 % of control

O=C(Nc1ccccc1)/C(N=Nc1ccccc1Cl)=N\Nc1cc(S(=O)(=O)O)ccc1Cl
inactive: dose: 50.0 mg/kg/injection, schedule: Q01DX005 (ip), vehicle: Klucel (hydroxypropylcellulose) (HPC) 103 % of control | dose: 100.0 mg/kg/injection, schedule: Q01DX005 (ip), vehicle: Klucel (hydroxypropylcellulose) (HPC) 102 % of control | dose: 200.0 mg/kg/injection, schedule: Q01DX005 (ip), vehicle: Klucel (hydroxypropylcellulose) (HPC) 107 % of control

NC(=O)CC[n+]1cccc(C(=O)O)c1
inactive: [8] 100 % of control | dose: 200.0 mg/kg/injection, schedule: Q04DX003 (ip), vehicle: saline 95 % of control | dose: 400.0 mg/kg/injection, schedule: Q04DX003 (ip), vehicle: saline 95 % of control

S=C(NNc1nnc(-c2ccccc2)c(-c2ccccc2)n1)Nc1ccccc1
inactive: [5] 106 % of control | [6] 97 % of control | [7] 90 % of control and 93 % of control
